Data taken from US9198433B2, “Substituted benzene fungicides” (E I DU PONT DE NEMOURS AND COMPANY, priority 2007, dated 2015).
Marks after values point to notes of the source that are not given here.

Key:
Format in all cases: in vivo
[1] = test system: Puccinia recondita f. sp. tritici; test: Test B: wheat leaf rust, preventive spray on wheat seedlings, disease rating
Procedure, shortened: (§1)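 Preventive foliar spray to run-off on wheat seedlings, followed by disease rating. Test rate 200 ppm (equal to 500 g/ha), with some entries at 40 ppm or 50 ppm. Suspensions made in acetone/purified water 50/50 containing 250 ppm Trem 014.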

Septoria nodorum = test: Test C: wheat glume blotch, preventive spray on wheat seedlings, disease rating
Procedure, shortened: as §1

Septoria tritici = test: Test D: wheat leaf blotch, preventive spray on wheat seedlings, disease rating
Procedure, shortened: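 Preventive test: one day after run-off spraying (200 ppm, equal to 500 g/ha, unless marked 40 or 50 ppm; acetone/water plus 250 ppm Trem 014), seedlings received S. tritici spore inoculum. Disease scored after 48 h at 24 °C in saturated air and 19 further days at 20 °C.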

Alternaria solani = test: Test H: tomato early blight, preventive spray on tomato seedlings, disease rating
Procedure, shortened: (§2)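 Disease ratings follow a preventive run-off spray of tomato seedlings. Compounds were first dissolved in acetone (3% of volume), then suspended in 50/50 acetone/water containing 250 ppm Trem 014. Test level 200 ppm (equivalent to 500 g/ha) except where marked * for 40 ppm or ** for 50 ppm.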

[2] = test system: Erysiphe graminis f. sp. tritici; test: Test A: wheat powdery mildew, preventive spray on wheat seedlings, disease rating
Procedure, shortened: as §1

Botrytis cinerea = test: Test F: tomato Botrytis, preventive spray on tomato seedlings, disease rating
Procedure, shortened: as §2

[3] = 200 ppm, 100 = 100% disease control, 0 = no control relative to controls

Compound	Percentage Disease Control, Test B ([1]; 200 ppm)	Percentage Disease Control, Test C (Septoria nodorum; 200 ppm)	Percentage Disease Control, Test D (Septoria tritici; 40 ppm (*))	Percentage Disease Control, Test H (Alternaria solani; 200 ppm)	Percentage Disease Control, Test A ([2]; 200 ppm)	Percentage Disease Control, Test F (Botrytis cinerea; 200 ppm)	Percentage Disease Control, Test B ([1]; 40 ppm (*))	Percentage Disease Control, Test C (Septoria nodorum; 40 ppm (*))	Percentage Disease Control, Test A ([2]; 40 ppm (*))	Percentage Disease Control, Test D (Septoria tritici; 200 ppm)	also measured
COC(=O)NCc1cc(-c2ccn(-c3ccc(C(=O)OC)cc3)n2)ccc1Cl [Cmpd 108]	86%	95%	98* %	28%	0%	0%					
COC(=O)NCc1cc(-c2ccn(-c3ccc(C)cc3)n2)ccc1Cl [Cmpd 109]			99* %				100* %	100* %	98* %		Percentage Disease Control, Test H (Alternaria solani; 40 ppm (*)): 100* %; Percentage Disease Control, Test F (Botrytis cinerea; 40 ppm (*)): 92* %
COC(=O)NCc1cc(-c2ccn(-c3ccc(C(C)C)cc3)n2)ccc1Cl [Cmpd 110]			97* %	85%			100* %	100* %	100* %		Percentage Disease Control, Test F (Botrytis cinerea; 40 ppm (*)): 96* %
COC(=O)NCc1cc(-c2ccn(-c3ccc(Br)cc3)n2)ccc1Cl [Cmpd 111]			100* %			95%	100* %	100* %	99* %		Percentage Disease Control, Test H (Alternaria solani; 40 ppm (*)): 90* %
COC(=O)NCc1cc(-c2ccn(-c3cccc(Br)c3)n2)ccc1Cl [Cmpd 112]			100* %	93%	88%	0%	99* %	100* %			
COC(=O)NCc1cc(-c2ccn(-c3cccc(C#N)c3)n2)ccc1Cl [Cmpd 113]	99%	100%		0%	92%	24%				100%	
COC(=O)NCc1cc(-c2ccn(-c3ccc(C#N)cc3)n2)ccc1Cl [Cmpd 114]	99%	100%		0%	93%	0%				100%	
COC(=O)NCc1cc(-c2ccn(-c3cccc(F)c3)n2)ccc1Cl [Cmpd 115]	99%	100%		96%	98%	32%				100%	
COC(=O)NCc1cc(-c2ccn(-c3ccc(F)cc3)n2)ccc1Cl [Cmpd 116]	100%	100%		99%	99%	0%				96%	
COC(=O)NCc1cc(-c2ccn(-c3ccc(Cl)c(Cl)c3)n2)ccc1Cl [Cmpd 117]	99%	100%		95%	98%	94%				100%	
COC(=O)NCc1cc(-c2ccn(-c3ccc(F)c(F)c3)n2)ccc1Cl [Cmpd 118]	100%	100%		99%	100%	40%				100%	
COC(=O)NCc1cc(-n2ccc(-c3cccc(C(F)(F)F)c3)n2)ccc1Cl [Cmpd 119]			100* %	57%		51%	100* %	100* %	100* %		
COC(=O)NCc1cc(-n2cnc(-c3cccc(C(F)(F)F)c3)n2)ccc1Cl [Cmpd 120]	79%	0%	94* %	0%		0%			98* %		
COC(=O)NCc1cc(-n2ccc(-c3cccc(Br)c3)n2)ccc1Cl [Cmpd 121]			99* %			0%	98* %	100* %	98* %		Percentage Disease Control, Test H (Alternaria solani; 40 ppm (*)): 90* %
COC(=O)NCc1cc(-n2ccc(-c3ccc(Cl)cc3)n2)ccc1Cl [Cmpd 122]			100* %			63%	100* %	100* %	100* %		Percentage Disease Control, Test H (Alternaria solani; 40 ppm (*)): 97* %
COC(=O)NCc1cc(-n2ccc(-c3cccc(Cl)c3)n2)ccc1Cl [Cmpd 123]			99* %	87%		63%	99* %	100* %	98* %		
COC(=O)NCc1cc(-n2ccc(-c3ccc(Br)cc3)n2)ccc1Cl [Cmpd 124]			100* %			0%	100* %	100* %	100* %		Percentage Disease Control, Test H (Alternaria solani; 40 ppm (*)): 99* %
COC(=O)NCc1cc(-c2cn[nH]c2)ccc1Cl [Cmpd 127]											Percentage Disease Control, Test B [1, 3]: 9%; Percentage Disease Control, Test C (Septoria nodorum; [3]): 0%; Percentage Disease Control, Test D (Septoria tritici; [3]): 53%; Percentage Disease Control, Test H (Alternaria solani; [3]): 0%; Percentage Disease Control, Test A [2, 3]: 0%; Percentage Disease Control, Test F (Botrytis cinerea; [3]): 0%
